Laboratory results: patent publication US20010018090A1, “Calorie reducing agent” (priority 1999, published 2001)
In brackets after ≈: the same amount, converted by molar mass.

Target: T1, α-glucosidase (sucrase) existing in small intestine of rat (Rattus norvegicus, UniProt P23739)
T1 construct: the supernatant liquid thereof was used as an enzyme solution (sucrase); from tissue; host or cells: rat small intestinal mucous membrane (brush border membrane)
Assay: Inhibition of rat small intestinal α-glucosidase (sucrase), IC50
Format: biochemical
Conditions: partially purified rat small intestinal sucrase, 5 mM sucrose, 37° C. for 60 minutes
Experimental: As to the α-glucosidase, a sucrase solution which was partially purified from small intestinal mucous membrane (brush edge membrane) of rat was used. Namely, the mucous membrane of small intestine was exfoliated using a slide glass, homogenized at 4° C. for 5 minutes with a phosphate buffer and subjected to an ultrasonic treatment for 5 minutes. The resulting solution of smashed mucous membrane was centrifuged and the supernatant liquid thereof was used as an enzyme solution (sucrase). A 5 mM sucrose solution was used as a substrate, an enzyme solution and a predetermined amount of a 1-deoxynojirimycin solution or a mulberry extract were added and the reaction was carried out at 37° C. for 60 minutes and then stopped by a treatment at 100° C. for 5 minutes. Amount of glucose in the reaction solution was measured by a biochemical automatic analyzer.

T1 sequence (P23739 whole entry): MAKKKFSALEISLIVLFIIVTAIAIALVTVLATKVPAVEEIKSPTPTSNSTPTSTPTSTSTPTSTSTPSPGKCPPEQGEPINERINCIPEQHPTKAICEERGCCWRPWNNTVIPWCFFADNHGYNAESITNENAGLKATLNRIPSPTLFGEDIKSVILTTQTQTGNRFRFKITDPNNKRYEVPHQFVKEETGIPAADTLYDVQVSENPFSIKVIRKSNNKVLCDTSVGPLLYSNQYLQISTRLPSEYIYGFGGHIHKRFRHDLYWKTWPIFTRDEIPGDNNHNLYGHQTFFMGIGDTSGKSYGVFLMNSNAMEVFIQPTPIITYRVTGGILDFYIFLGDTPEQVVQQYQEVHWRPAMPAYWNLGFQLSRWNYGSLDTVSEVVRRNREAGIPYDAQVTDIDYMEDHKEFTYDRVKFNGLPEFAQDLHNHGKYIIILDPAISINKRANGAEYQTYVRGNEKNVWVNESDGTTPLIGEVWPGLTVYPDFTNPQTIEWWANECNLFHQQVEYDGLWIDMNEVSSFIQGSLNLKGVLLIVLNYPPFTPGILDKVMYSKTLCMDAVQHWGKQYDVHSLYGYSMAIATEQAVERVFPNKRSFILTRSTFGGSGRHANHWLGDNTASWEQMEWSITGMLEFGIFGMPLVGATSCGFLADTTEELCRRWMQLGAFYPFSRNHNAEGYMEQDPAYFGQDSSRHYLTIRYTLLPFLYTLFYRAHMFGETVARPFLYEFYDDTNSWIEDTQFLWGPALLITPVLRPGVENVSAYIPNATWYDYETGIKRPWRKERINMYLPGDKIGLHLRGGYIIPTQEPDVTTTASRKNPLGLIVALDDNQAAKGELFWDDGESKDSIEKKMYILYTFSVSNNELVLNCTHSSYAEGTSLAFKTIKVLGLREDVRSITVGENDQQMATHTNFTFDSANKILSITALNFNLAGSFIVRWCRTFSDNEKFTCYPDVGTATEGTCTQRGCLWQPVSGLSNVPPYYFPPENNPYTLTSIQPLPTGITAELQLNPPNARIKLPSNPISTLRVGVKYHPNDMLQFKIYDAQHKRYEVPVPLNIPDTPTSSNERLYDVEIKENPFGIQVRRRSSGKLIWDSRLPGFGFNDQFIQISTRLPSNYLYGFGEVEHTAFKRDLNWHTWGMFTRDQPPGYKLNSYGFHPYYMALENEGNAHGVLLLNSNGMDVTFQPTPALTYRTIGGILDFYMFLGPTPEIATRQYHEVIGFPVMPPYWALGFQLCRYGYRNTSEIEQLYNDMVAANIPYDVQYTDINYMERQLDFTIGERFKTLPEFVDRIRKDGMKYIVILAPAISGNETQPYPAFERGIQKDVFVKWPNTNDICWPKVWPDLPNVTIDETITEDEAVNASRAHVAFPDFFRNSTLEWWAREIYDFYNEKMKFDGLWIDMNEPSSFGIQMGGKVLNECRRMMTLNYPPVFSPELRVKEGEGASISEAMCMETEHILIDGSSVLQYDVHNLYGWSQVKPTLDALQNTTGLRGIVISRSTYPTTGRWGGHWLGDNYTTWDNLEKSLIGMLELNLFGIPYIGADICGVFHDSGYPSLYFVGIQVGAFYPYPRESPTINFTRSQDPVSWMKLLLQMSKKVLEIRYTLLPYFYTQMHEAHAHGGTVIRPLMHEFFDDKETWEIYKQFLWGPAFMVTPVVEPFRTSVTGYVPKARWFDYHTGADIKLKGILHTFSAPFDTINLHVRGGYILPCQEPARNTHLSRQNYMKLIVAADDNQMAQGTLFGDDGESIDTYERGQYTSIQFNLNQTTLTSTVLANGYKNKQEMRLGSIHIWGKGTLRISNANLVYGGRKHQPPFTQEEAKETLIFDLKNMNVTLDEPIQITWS

Q: With OC[C@H]1NC[C@H](O)[C@@H](O)[C@@H]1O [1-Deoxynojirimycin, 1-deoxynojirimycin] as the compound, how does the “IC50 to Sucrase” value read?
A: 0.05 mg/L (≈ 0.306 µM)
